Measured values reported in ChEMBL document CHEMBL1201862, “PubChem BioAssay data set” (2004).
The source made the active and inactive calls.

Tests used:
[1] = molecular target: Neurotensin receptor type 1 (Homo sapiens, UniProt P30989); format: functional;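 further: Image-based confirmatory dose-response assay measuring agonist activity at NTR1; NTR1-expressing U2OS osteosarcoma cells imaged for beta-arrestin GFP spot formation; agonist potency where compounds increase beta-arrestin recruitment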
[2] = viability loss in HepG2 hepatoma cells – cell-based, ATP luminescence, cherry-pick, activator set 2, cytotoxicity control, dose response (AID 1053143); format: functional
[3] = Mcl1-dependent cancer cell viability – HMC-1-8 cells, luminescence, dry powder, selectivity assay for A1 inhibitor project, dose response (AID 504415); format: functional, cell-based; conditions: Homo sapiens
[4] = Luminescence Cell-Based Dose Retest to Confirm Inhibitors of Cancer Stem Cells. [Related pubchem assays (depositor defined):AID2717, AID2721]; format: functional; conditions: Homo sapiens
Caspase-8 = Caspase-8 (Homo sapiens, UniProt Q14790); test: inhibitors of purified CASP8 protease – biochemical, Z-IETD-R110 fluorescence, cherry-picked samples, selectivity assay for caspase-6 inhibitor project, dose response (AID 743294)
Caspase-6 = molecular target: T1, Caspase-6 (Homo sapiens, UniProt P55212); test: inhibition of CASP6 peptide cleavage – biochemical, VEID-R110 fluorescence, cherry-pick, dose response (AID 720632)
T1 sequence (P55212 whole entry): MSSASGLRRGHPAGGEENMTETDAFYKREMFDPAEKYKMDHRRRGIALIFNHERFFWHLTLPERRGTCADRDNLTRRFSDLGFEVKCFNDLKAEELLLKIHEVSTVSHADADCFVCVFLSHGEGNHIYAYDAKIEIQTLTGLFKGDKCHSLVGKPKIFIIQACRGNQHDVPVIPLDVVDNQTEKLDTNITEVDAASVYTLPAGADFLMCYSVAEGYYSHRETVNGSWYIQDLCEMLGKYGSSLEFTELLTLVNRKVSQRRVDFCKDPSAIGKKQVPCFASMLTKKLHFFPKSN

Caspase-7 = Caspase-7 (Homo sapiens, UniProt P55210); test: caspase-7 enzyme inhibition, selectivity check – biochemical, DEVD-R110 fluorescence, cherry-pick, selectivity assay for caspase-6 inhibitor project, dose response (AID 743295); format: functional
[5] = molecular target: T2, Carboxy-terminal domain RNA polymerase II polypeptide A small phosphatase 1 (Homo sapiens, UniProt Q9GZU7); test: CTDSP1 inhibitors, concentration-response, biochemical, absorbance readout, ultra-high-throughput screen actives (AID 540297); format: functional
T2 sequence (Q9GZU7 whole entry): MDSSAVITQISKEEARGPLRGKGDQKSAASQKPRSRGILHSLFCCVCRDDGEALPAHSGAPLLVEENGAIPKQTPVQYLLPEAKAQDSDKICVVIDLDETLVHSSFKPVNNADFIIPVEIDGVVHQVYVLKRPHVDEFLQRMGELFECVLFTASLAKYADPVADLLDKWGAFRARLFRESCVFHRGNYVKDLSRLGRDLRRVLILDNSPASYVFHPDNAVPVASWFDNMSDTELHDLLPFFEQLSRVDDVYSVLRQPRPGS

[6] = molecular target: Beta-adrenergic receptor kinase 1 (Homo sapiens, UniProt P25098); test: aptamer displacement from bead-bound GRK2 – biochemical, cherry pick 1, bead flow cytometry, dose response (AID 504500)
Chain of Beta-adrenergic receptor kinase 1 (P25098 whole entry): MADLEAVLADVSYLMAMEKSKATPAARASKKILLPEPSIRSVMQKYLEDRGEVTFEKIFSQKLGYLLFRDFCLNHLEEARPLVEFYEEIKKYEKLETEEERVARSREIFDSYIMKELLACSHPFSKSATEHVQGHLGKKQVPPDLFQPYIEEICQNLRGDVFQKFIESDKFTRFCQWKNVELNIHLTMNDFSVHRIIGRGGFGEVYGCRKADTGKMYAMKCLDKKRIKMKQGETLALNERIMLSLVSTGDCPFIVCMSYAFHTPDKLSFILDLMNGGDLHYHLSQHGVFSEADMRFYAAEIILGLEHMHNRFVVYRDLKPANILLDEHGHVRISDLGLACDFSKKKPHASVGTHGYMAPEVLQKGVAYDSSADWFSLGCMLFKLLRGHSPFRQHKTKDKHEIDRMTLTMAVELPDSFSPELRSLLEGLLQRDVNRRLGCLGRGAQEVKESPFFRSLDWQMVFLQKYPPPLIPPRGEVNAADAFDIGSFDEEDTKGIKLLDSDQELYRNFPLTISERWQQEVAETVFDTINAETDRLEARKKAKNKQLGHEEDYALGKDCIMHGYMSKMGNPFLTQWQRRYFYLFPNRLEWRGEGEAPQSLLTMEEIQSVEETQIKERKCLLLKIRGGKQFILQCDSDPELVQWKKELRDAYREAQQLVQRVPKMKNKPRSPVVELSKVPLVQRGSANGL

Chain of Caspase-8 (Q14790 217-374 limits assumed): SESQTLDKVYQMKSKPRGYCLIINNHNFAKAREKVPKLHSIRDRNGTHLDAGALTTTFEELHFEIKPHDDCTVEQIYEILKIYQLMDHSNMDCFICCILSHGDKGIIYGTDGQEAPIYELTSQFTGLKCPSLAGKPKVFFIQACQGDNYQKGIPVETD
Chain of Caspase-8 (Q14790 385-479 limits assumed): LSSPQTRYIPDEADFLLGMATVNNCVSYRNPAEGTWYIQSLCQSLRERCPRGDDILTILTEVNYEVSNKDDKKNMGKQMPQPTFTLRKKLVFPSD
Chain of Caspase-7 (P55210 24-198 limits assumed): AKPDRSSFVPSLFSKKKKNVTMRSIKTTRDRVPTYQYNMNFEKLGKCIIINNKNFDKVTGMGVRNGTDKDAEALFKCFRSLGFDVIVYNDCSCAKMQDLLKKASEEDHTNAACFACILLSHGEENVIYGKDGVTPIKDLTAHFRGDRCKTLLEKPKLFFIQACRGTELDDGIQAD
Chain of Caspase-7 (P55210 207-303 limits assumed): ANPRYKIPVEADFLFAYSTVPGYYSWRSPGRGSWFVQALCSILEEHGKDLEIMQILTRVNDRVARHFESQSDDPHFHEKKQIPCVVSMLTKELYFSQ
Chain of Neurotensin receptor type 1 (P30989 whole entry): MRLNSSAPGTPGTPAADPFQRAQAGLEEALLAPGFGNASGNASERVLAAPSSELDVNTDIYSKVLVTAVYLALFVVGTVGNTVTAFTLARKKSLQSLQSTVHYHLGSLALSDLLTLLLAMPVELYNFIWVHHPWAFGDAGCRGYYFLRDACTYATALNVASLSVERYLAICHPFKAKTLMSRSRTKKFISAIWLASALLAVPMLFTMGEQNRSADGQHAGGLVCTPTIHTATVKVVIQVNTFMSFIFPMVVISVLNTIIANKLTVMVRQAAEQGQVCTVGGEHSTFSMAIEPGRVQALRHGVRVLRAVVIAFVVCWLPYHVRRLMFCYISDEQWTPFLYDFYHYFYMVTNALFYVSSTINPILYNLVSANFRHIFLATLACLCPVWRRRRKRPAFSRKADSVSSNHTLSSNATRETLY

Compound | EC50 [1] | AC50 [2] | AC50 [3] | AC50 [4] | AC50 (Caspase-8) | AC50 (Caspase-6) | AC50 (Caspase-7) | IC50 [5] | EC50 [6]
Cc1ccc(Sc2c([N+](=O)[O-])c(=O)n(C)c3ccccc23)cc1 | 26 µM (inactive) | 26 µM (active) | 19.3 µM (active) | 3.18 µM (active) | – | – | – | – | –
CCCN(C(=O)c1cccc(-n2cccc2)c1)c1c(N)n(Cc2ccccc2)c(=O)[nH]c1=O | – | – | – | – | 58.8 µM (active) | 3.75 µM (active) | > 70 µM (inactive) | 6.44 µM (active) | 0.72 µM (active)
